Like-named read-outs stand apart in the source and are kept apart here. Square brackets hold non-standard residues; d marks the D form. Peptide text beside a SMILES is read from it. * marks the point of attachment. sY = N[C@@H](Cc1ccc(OS(=O)(=O)O)cc1)C(=O)O; Cbz = O=C(OCc1ccccc1)*; Boc = CC(C)(C)OC(=O)*
Key:
CCK receptor [1] = settings: prior art CCK antagonists; cited from earlier work
CCK receptor [2] = target: T1, CCK receptor (Rattus norvegicus, UniProt P30551); assay: CCK receptor binding (pancreas), inhibition of 125I-CCK-33 binding; set-up: species or system rat (Male Sprague-Dawley); settings: for effect on the 125I-CCK receptor binding assay: protease inhibitor additives of the assay buffer
T1 construct: The whole pancreas was dissected free of fat tissue and was homogenized; from tissue; host or cells: rat (Sprague-Dawley) whole pancreas membranes
T1 sequence (P30551 1-444): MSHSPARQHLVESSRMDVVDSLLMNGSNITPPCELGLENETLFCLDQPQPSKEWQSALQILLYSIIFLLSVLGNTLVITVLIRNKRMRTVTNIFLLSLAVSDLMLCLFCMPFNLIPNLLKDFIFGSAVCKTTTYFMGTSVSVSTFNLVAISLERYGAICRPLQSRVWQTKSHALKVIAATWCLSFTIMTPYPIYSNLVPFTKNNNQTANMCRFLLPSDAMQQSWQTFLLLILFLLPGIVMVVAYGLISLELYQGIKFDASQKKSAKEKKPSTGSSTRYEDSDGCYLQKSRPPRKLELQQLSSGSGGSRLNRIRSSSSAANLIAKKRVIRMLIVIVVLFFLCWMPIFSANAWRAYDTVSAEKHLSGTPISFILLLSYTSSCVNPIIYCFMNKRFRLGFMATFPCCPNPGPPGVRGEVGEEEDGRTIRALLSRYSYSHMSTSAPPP
Protocol: 1. CCK receptor binding (pancreas)
CCK-33 was radiolabeled with ^125 I-Bolton Hunter reagent (2000 Ci/mmole) as described by Sankara et al. (J. Biol. Chem. 254: 9349-9351, 1979). Receptor binding was performed according to Innis and Snyder (Proc. Natl. Acad. Sci. 77: 6917-6921, 1980) with the minor modification of adding the additional protease inhibitors, phenylmethane sulfonyl fluoride and o-phenanthroline. The latter two compounds have no effect on the ^125 I-CCK receptor binding assay.
Male Sprague-Dawley rats (200-350 g) were sacrificed by decapitation. The whole pancreas was dissected free of fat tissue and was homogenized in 20 volumes of ice-cold 50 mM. Tris HCl (pH 7.7 at 25° C.) with a Brinkmann Polytron PT 10. The homogenates were centrifuged at 48,000 g for 10 min. Pellets were resuspended in Tris Buffer, centrifuged as above and resuspended in 200 volumes of binding assay buffer (50 mM Tris HCl, pH 7.7 at 25° C., 5 mM dithiothrietol, 0.1 mM bacitracin, 1.2 mM phenylmethane sulfonyl fluoride and 0.5 mM o-phenanthroline). […] All assays were run in duplicate or triplicate. The reaction mixtures were incubated at 37° C. for 30 minutes and centrifuged in a Beckman Microfuge (4 minutes) immediately after adding 1 ml of ice-cold incubation buffer. The supernatant was aspirated and discarded, pellets were counted with a Beckman gamma 5000. For Scatchard analysis (Ann. N.Y. Acad. Sci. 51: 660, 1949), ^125 I-CCK-33 was progressively diluted with increasing concentrations of CCK-33.

CCK receptor [3] = target: T2, CCK receptor (Cavia porcellus, UniProt H0VZC5); assay: CCK receptor binding (brain), inhibition of 125I-CCK-33 binding; set-up: species or system guinea pig (Male Hartley); settings: 125I-CCK-33, guinea pig cerebral cortex, 25° C., 2 hours
T2 construct: Cerebral cortex was dissected and used as a receptor source; from tissue; host or cells: guinea pig (Hartley) cerebral cortex membranes
T2 sequence (H0VZC5 entry or part of it): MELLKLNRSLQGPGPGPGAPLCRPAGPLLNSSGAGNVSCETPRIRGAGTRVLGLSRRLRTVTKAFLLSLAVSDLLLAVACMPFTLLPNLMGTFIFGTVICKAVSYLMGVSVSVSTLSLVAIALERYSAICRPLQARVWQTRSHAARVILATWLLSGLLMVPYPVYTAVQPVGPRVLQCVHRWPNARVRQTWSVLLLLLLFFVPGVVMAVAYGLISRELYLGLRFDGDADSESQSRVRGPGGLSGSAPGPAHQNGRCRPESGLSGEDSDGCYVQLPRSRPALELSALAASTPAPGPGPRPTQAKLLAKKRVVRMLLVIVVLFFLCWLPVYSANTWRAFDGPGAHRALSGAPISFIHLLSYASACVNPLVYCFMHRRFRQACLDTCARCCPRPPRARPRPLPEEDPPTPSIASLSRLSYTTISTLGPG
Protocol: 2. CCK Receptor Binding (Brain)
CCK-33 was radiolabeled and the binding was performed according to the description for the pancreas method with modification according to Saito et al. (J. Neurochem. 37, 483-490, 1981).
Male Hartley guinea pigs (300-500 g) were sacrificed by decapitation and the brains were removed and placed in ice-cold 50 mM. Tris HCl plus 7.58 g/l Trizma-7.4 (pH 7.4 at 25° C.). Cerebral cortex was dissected and used as a receptor source. Each gram of fresh guinea pig brain tissue was homogenized in 10 ml of Tris Trizma buffer with a Brinkman polytron PT-10. The homogenates were centrifuged at 42,000 g for 15 min. […] All assays were run in duplicate or triplicate. The reaction mixtures were incubated at 25° C. for 2 hours and centrifuged in a Beckman Microfuge (4 minutes) immediately after adding 1 ml of ice-cold incubation buffer. The supernatant was aspirated and discarded, pellets were counted with a Beckman gamma 5000.

gastrin receptor = settings: cited from earlier work
[4] = 125I-CCK-33, rat pancreas membranes, 37° C., 30 minutes, read-out: IC50 125I-CCK Pancreas
[5] = read-out: IC50 125I-CCK Pancreas

Structure (SMILES)	IC50 (CCK receptor [2]; [4])	IC50 (CCK receptor [3])	further results
CCCC(=O)Nc1nc2c(ncn2[C@@H]2O[C@@H]3COP(=O)(O)O[C@H]3[C@H]2OC(=O)CCC)c(=O)[nH]1 [dibutyryl cyclic GMP]	–	–	CCK antagonist activity (CCK receptor [1]): most potent
Fc1ccccc1C1=N[C@H](Cc2c[nH]c3ccccc23)c2nncn2-c2ccccc21 [Compound 1, 6-(2-Fluorophenyl)-4(R)-4-(3'-indolyl)methyl-4H-s-triazolo[4,3-a]-1,4-benzodiazepine]	0.2 µM	–	–
CN(C)Cc1nnc2n1-c1ccccc1C(c1ccccc1F)=N[C@@H]2Cc1c[nH]c2ccccc12 [Compound 4, 6-(2-Fluorophenyl)-4(R)-4-(3'-indolyl)methyl-1-dimethylaminomethyl-4H-s-triazolo[4,3-a]-1,4-benzodiazapine]	–	–	IC50 (CCK receptor [2]; [5]): 14 µM
O=c1[nH]nc2n1-c1ccccc1C(c1ccccc1F)=N[C@@H]2Cc1c[nH]c2ccccc12 [Compound 5, 2,4-Dihydro-3(R)-(3'-indolyl)methyl-6-(2-fluorophenyl)-1H-S-triazolo-[4,3-a]-1,4-benzodiazepin-1-one solvate]	–	63 µM	IC50 (CCK receptor [2]): 3.1 µM
O=C(NC1N=C(c2ccccc2F)c2ccccc2-n2cnnc21)c1ccc(Cl)cc1 (stereo not drawn) [Compound 8, 6-(2-Fluorophenyl)-4-(4-chlorophenyl)carbonylamino-4H-s-triazolo[4,3-a]-1,4-benzodiazepine]	0.0044 µM	9.3 µM	–
CSCC[C@H](NC(=O)[C@H](Cc1ccc(OS(=O)(=O)O)cc1)NC(=O)OCc1ccccc1)C(=O)NCC(=O)N[C@@H](Cc1c[nH]c2ccccc12)C(=O)N[C@@H](CCSC)C(=O)N[C@@H](CC(=O)O)C(N)=O [Cbz-Tyr(SO3 H)-Met-Gly-Trp-Met-Asp-NH2] (Cbz-[sY]MGWMD-NH2)	–	–	CCK antagonist activity (CCK receptor [1]): can function as CCK antagonists
O=C(NC1N=C(c2ccccc2F)c2ccccc2-n2cnnc21)c1cc2ccccc2[nH]1 (stereo not drawn) [Compound 9, 6-(2-Fluorophenyl)-4-(indol-2-yl)carbonylamino-4H-s-triazolo[4,3-a]-1,4-benzodiazepine]	0.0009 µM	0.053 µM	–
CCCN(CCC)C(=O)C(CCC(=O)O)NC(=O)c1ccccc1 (stereo not drawn) [proglumide]	–	–	in vitro gastrin antagonism (gastrin receptor): Very weak in vitro antagonists
Cc1nnc2n1-c1ccccc1C(c1ccccc1F)=NC2NC(=O)c1cc2ccccc2[nH]1 (stereo not drawn) [Compound 10, 6-(2-Fluorophenyl)-4-(indol-2-yl)carbonylamino-1-methyl-4H-s-triazolo[4,3-a]-1,4-benzodiazepine]	0.0004 µM	0.066 µM	–
CSCC[C@H](N)C(=O)N[C@@H](CC(=O)O)C(=O)N[C@@H](Cc1ccccc1)C(N)=O [Met-Asp-Phe-NH2] (H-Met-Asp-Phe-NH2)	–	–	CCK antagonist activity (CCK receptor [1]): can function as CCK antagonists
CSCC[C@H](NC(=O)OC(C)(C)C)C(=O)N[C@@H](CC(=O)O)C(=O)N[C@@H](Cc1ccccc1)C(N)=O [Boc-Met-Asp-Phe-NH2] (Boc-Met-Asp-Phe-NH2)	–	–	CCK antagonist activity (CCK receptor [1]): can function as CCK antagonists
O=S(=O)(F)Cc1ccccc1 [phenylmethane sulfonyl fluoride, reference compound]	–	–	effect on the 125I-CCK receptor binding assay (CCK receptor [2]): no effect
O=C(NC1N=C(c2ccccc2F)c2ccccc2-n2cnnc21)OCc1ccccc1 (stereo not drawn) [Compound 7, 6-(2-Fluorophenyl)-4-benzyloxycarbonylamino-4H-s-triazolo[4,3-a]-1,4-benzodiazepine]	–	8 µM	IC50 (CCK receptor [2]; [5]): 0.22 µM
c1cnc2c(c1)ccc1cccnc12 [o-phenanthroline, reference compound]	–	–	effect on the 125I-CCK receptor binding assay (CCK receptor [2]): no effect
Cc1nnc2n1-c1ccccc1C(c1ccccc1F)=N[C@@H]2Cc1c[nH]c2ccccc12 [Compound 2, 6-(2-Fluorophenyl)-4-(R)-4-(3'-indolyl)methyl-1-methyl-4H-s-triazolo[4,3-a]-1,4-benzodiazepine]	0.3 µM	38.6 µM	–
Fc1ccccc1C1=N[C@H](Cc2c[nH]c3ccccc23)c2nnc(C(Cl)(Cl)Cl)n2-c2ccccc21 [Compound 6, 1-Trichloromethyl-4(R)-(3'-indolyl)methyl-6-(2-fluorophenyl)-4H-S-triazolo[4,3-a]-1,4-benzodiazepine solvate]	25 µM	> 100 µM	–
Fc1ccccc1C1=N[C@H](Cc2c[nH]c3ccccc23)c2nnc(-c3ccccc3)n2-c2ccccc21 [Compound 3, 6-(2-Fluorophenyl)-4(R)-4-(3'-indolyl)methyl-1-phenyl-4H-s-triazolo[4,3-a]-1,4-benzodiazepine]	–	–	IC50 (CCK receptor [2]; [5]): 22 µM
